Results as given in PMC12113707, “Microwave Assisted Synthesis of Antioxidant Dihydro-Pyrazole Hybrids as Possible Lipoxygenase Inhibitors” (Molecules, 2025).

Key:
[1] = Experimental lipophilicity RM by reverse phase thin layer chromatography (RP-TLC); assay type: physicochemical; conditions: methanol-water mobile phase
Description: Lipophilicity is a main physicochemical parameter for bioactive molecules, linking solubility, ligand-target binding interactions, membrane permeability absorption, distribution, bioavailability, metabolism, elimination and toxicological effects (ADMET), playing an important role in biological activity. The experimental values of lipophilicity RM were determined by reverse phase thin layer chromatography. For the experimental determination of lipophilicity the hydrophilic-lipid phase system is a mixture of methanol- water (90/10%). The theoretical lipophilicity values are determined by the Bioloom program (http://biobyte.com/bb/prod/bioloom.html, accessed on 8 April 2024) (Table 1). According to the calculated clog P values, the most lipophilic compounds are 3c, 3d and 3f while the less lipophilic ones are compounds 5a and 5b.
Melting points were determined on a MEL-Temp II (Lab. Devices, Holliston, MA, USA). In vitro tests were carried out using a UV-Vis spectra and recorded on a Perkin-Elmer 554 double-beam spectrophotometer (Perkin-Elmer Corporation Ltd., Lane Beaconsfield, Bucks, UK). Infrared spectra (KBr pellets) were recorded with Perkin-Elmer 597 spectrophotometer (Perkin-Elmer Corporation Ltd., Lane Beaconsfield, Bucks, UK). The ^1H […] Magnetic Resonance (^1H-NMR) spectra were acquired on an Agilent 500/54 (DD2) at 500 MHz in CDCl3 using tetramethylsilane as an internal standard. Agilent 500/54 (DD2) ^13C NMR spectra were acquired at 125 MHz in CDCl3 solutions with tetramethylsilane serving as an internal reference. Coupling constants J are expressed in Hz, and chemical shifts are reported in ppm. Thermo Fisher Scientific Inc., Waltham, MA, USA, used MeOH as the solvent to calculate mass spectra using an LC-PDA-MS Thermo Finnigan system (LC Pump Plus, Autosampler, Surveyor PDA Plus Detector) interfaced with an ESI MSQ Plus (Thermo Finnigan). Thin-layer chromatography using 5554 F254 Silica gel/TLC cards (Merck and Fluka Chemie GmbH Buchs, Steinheim, Switzerland) was used to monitor the reaction progress. Silica gel 60 F254 plates with a diameter of 2 mm were utilized for preparative thin layer chromatography (prep TLC) by Merck KgaA (ICH078057). Merck (20 × 20 cm) plates were used for the experimental assessment of the lipophilicity using reverse phase thin-layer chromatography (RP-TLC) TLC-Silica gel 60 F254 DC Kieselgel.
In this experiment, TLC silica gel 60 F254 1.05715.0001 commercial glass plates from Merck were used. The plates were first immersed in a 5% v/v solution of liquid paraffin in petroleum ether and left for 90 s to become completely impregnated with the stable lipophilic phase. They were then activated by standing for 30 min in an oven at 40 °C and kept there until the time of use. A 70% v/v MeOH/H2O mixture was used as the mobile phase. The mobile phase was saturated with a few drops of liquid paraffin before being used. The spots of the compounds were placed on the plate at a distance of 2 cm from the edges of the plate and also from each other. The development of the spots on the plates was carried out in closed chromatography chambers where the atmosphere is saturated with the mobile phase at room temperature. At the end of development, the solvent-formed front was marked and the plates are dried at 80 °C for about 20–30 min. The appearance of the spots was made under an ultraviolet light lamp. The Rf values were the average of 5–6 measurements for each compound and assuming that the compounds will have been rotated to different positions on the plates. The RM values were calculated from the corresponding Rf values according to the equation [67].RM = log [(1/Rf) − 1](1)

[2] = target: T1, soybean lipoxygenase (SLOX-1) (Glycine max, UniProt P08170); assay: Inhibition of soybean lipoxygenase in vitro; assay type: biochemical; conditions: pH 9, sodium linoleate substrate; for inhibition at 100 µM: read-out: LOX% Inhibition, 100 μM (±SD); for IC50: read-out: LOX IC50 (μM) (±SD)
T1 construct: 200 μL of plant-derived lipoxygenase solution (1:9 × 10^−4 w/v, in saline); purchased Sigma Chemical, Co; host or cells: soybean (plant-derived)
T1 sequence (P08170 1-839): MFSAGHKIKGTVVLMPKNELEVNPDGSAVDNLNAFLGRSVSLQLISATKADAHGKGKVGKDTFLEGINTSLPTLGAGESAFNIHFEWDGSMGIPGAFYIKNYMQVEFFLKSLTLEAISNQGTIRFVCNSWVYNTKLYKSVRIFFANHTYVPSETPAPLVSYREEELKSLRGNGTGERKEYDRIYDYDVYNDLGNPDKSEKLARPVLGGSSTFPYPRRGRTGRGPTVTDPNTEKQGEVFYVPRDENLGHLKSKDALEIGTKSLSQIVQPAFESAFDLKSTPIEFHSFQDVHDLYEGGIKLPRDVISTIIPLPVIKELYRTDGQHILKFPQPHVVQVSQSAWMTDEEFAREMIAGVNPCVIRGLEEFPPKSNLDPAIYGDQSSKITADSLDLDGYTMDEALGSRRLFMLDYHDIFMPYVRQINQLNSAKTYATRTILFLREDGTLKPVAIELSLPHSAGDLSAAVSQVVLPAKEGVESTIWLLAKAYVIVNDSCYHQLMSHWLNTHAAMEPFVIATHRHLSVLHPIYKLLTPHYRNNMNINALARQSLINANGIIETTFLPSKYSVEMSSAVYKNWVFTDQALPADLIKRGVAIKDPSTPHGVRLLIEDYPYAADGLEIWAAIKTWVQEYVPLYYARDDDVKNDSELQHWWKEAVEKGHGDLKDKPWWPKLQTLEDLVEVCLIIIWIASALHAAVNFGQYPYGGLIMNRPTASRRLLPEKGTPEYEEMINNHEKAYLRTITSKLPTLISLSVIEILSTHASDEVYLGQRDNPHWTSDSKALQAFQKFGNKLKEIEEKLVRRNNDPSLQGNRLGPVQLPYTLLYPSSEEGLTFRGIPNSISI
Description: Soybean lipoxygenase SLOX-1 at pH 9 is used in vitro. During this assay linoleic acid sodium salt is converted to the corresponding 13-hydroperoxide. The reaction is recorded photometrically at 234 nm using the UV-based enzyme assay. […] It is known that soybean LOX inhibitory activity induced by NSAIDs is qualitatively quite similar to the inhibition observed on the rat mast cells LOX and this assay may be used as a qualitative or semi-quantitative screen for such activity.
To a quartz cell, add 790 μL of Tris-HCl pH = 9.0 buffer, 200 μL of plant-derived lipoxygenase solution (1:9 × 10^−4 w/v, in saline), 10 μL of the test compound solution and 100 μL of sodium linoleate solution (3 mM concentration). The absorbance was measured at 234 nm, where the change in absorbance due to the conversion of linoleic acid to […] was recorded. A solution of 790 μL of Tris-HCl pH = 9.0 buffer, 200 μL of a plant-derived lipoxygenase solution (1:9 × 10^−4 w/v, in saline), 10 μL of DMSO and 100 μL of sodium linoleate solution (3 mM concentration) was used as a control.

[3] = Interaction with the stable free radical DPPH (reducing activity); conditions: 517 nm
Description: In general, the compounds present moderate to good antioxidant activity. It seems that the dibenzylacetones present satisfactory antioxidant activity compared to the hybrids at 60 min (1b, 1d and 1f).
The tested compounds (0.1 mM final concentration) dissolved in DMSO were incubated with a solution of DPPH in absolute ethanol in absence of light. The absorbance at 20 and 60 min at 517 nm was recorded at room temperature. NDGA was used as the reference compound.

[4] = Inhibition of AAPH-induced linoleic acid peroxidation; conditions: 37 °C, 234 nm
Description: The ability of the compounds to inhibit AAPH-induced peroxidation of linoleic acid is another assay to investigate the antioxidant properties of the compounds. Azo compounds such as 2,2′-azobis dihydrochloride (2-amidinopropane) (AAPH) are capable of generating free radicals through spontaneous decomposition at 37 °C. The R- radicals react immediately with air-oxygen to produce peroxy radicals. AAPH was therefore used as the radical initiator and sodium linoleate as substrate subjected to peroxidation. Measurements were carried out at 234 nm using a UV/V is spectrophotometer. Dichalcone 1i substituted with two phenyl groups presents the lowest lipophilicity. […] Therefore, hydrophilic substituents offer an increase in activity.
The interaction of free radicals with cell membrane lipids induces free radical chain reactions, a process called lipid peroxidation. 930 μL of a phosphate buffer solution (0.05 M, pH = 7.4), 10 μL of the sodium linolate solution (16 mM in a buffer solution of Tris-HCl pH = 9) and 10 μL of the tested compounds (stock solutions 100 μΜ) were mixed and the oxidative procedure started after the addition of 50 μL AAPH at 37 °C under air conditions. The conjugated diene’s absorbance was measured at 234 nm at a thermostable spectrophotometer (37 °C) according to previous publication.

| SMILES | RM ± SD [1] | inhibition at 100 µM [2] [%] | RA%, 100 μM, 60 min (±SD) [3] [%] | AAPH% Inhibition, 100 μM (±SD) [4] [%] | RA%, 100 μM, 20 min (±SD) [3] [%] | IC50 [2] [µM] |
| --- | --- | --- | --- | --- | --- | --- |
| CN(C)c1ccc(/C=C/C(=O)/C=C/c2ccc(N(C)C)cc2)cc1 [Compound 1e, (1E,4E)-1,5-bis(4-dimethylaminophenyl)-1,4-pentadien-3-one] | −0.14 ± 0.009 | 24 ± 0.6 | 100 ± 8.7 | 50 ± 0.5 |  |  |
| O=C(/C=C/c1ccc(C(F)(F)F)cc1)/C=C/c1ccc(C(F)(F)F)cc1 [Compound 1f, (1E,4E)-1,5-bis(4-(trifluoromethyl)phenyl)-1,4-pentadien-3-one] | 0.57 ± 0.031 | 24 ± 1.4 | 26 ± 0.9 | 32 ± 1.4 | 13 ± 0.8 |  |
| C(=C\c1ccccc1)/C1=NN(c2ccccc2)C(c2ccccc2)C1 (stereo not drawn) [Compound 2a, (E)-1,5-Diphenyl-3-styryl-4,5-dihydro-1H-pyrazole] | 1.00 ± 0.084 | 42 ± 2.4 | 17 ± 1.2 | 44 ± 0.7 |  |  |
| Fc1ccc(/C=C/C2=NN(c3ccccc3)C(c3ccc(F)cc3)C2)cc1 (stereo not drawn) [Compound 2b] | 0.78 ± 0.065 | 24 ± 1.9 | 15 ± 0.6 | 39 ± 0.3 | 2 ± 0.1 |  |
| Clc1ccc(/C=C/C2=NN(c3ccccc3)C(c3ccc(Cl)cc3)C2)cc1 (stereo not drawn) [Compound 2d] | 1.07 ± 0.067 |  |  | 75 ± 0.1 | 6 ± 0.4 | 2.5 |
| CN(C)c1ccc(/C=C/C2=NN(c3ccccc3)C(c3ccc(N(C)C)cc3)C2)cc1 (stereo not drawn) [Compound 2e] | 0.95 ± 0.092 |  | 45 ± 1 | 78 ± 0.4 | 24 ± 0.9 | 0.35 |
| FC(F)(F)c1ccc(/C=C/C2=NN(c3ccccc3)C(c3ccc(C(F)(F)F)cc3)C2)cc1 (stereo not drawn) [Compound 2f] | 1.31 ± 0.031 | 14 ± 0.8 |  | 52 ± 2.5 | 5 ± 0.2 |  |
| Brc1ccc(N2N=C(/C=C/c3ccccc3)CC2c2ccccc2)cc1 (stereo not drawn) [Compound 3a, (E)-1-(4-bromophenyl)-5-phenyl-3-styryl-4,5-dihydro-1H-pyrazole] | 1.11 ± 0.068 | 51 ± 2.2 | 22 ± 0.9 | 75 ± 1.4 | 10 ± 0.3 |  |
| Fc1ccc(/C=C/C2=NN(c3ccc(Br)cc3)C(c3ccc(F)cc3)C2)cc1 (stereo not drawn) [Compound 3b] | 1.03 ± 0.057 | 17 ± 0.8 | 6 ± 0.6 | 63 ± 2.6 | 2 ± 0.1 |  |
| Brc1ccc(/C=C/C2=NN(c3ccc(Br)cc3)C(c3ccc(Br)cc3)C2)cc1 (stereo not drawn) [Compound 3c] | 1.46 ± 0.049 |  | 24 ± 0.9 | 40 ± 1.8 | 2 ± 0.1 | 30 |
| Clc1ccc(/C=C/C2=NN(c3ccc(Br)cc3)C(c3ccc(Cl)cc3)C2)cc1 (stereo not drawn) [Compound 3d, (E)-1-(4-bromo-phenyl)-5-(4-chloro-phenyl)-3-(4-chlorostyryl)-4,5-dihydro-1H-pyrazole] | 1.39 ± 0.069 | 11 ± 0.8 |  | 52 ± 2.5 | 6 ± 0.5 |  |
| CN(C)c1ccc(/C=C/C2=NN(c3ccc(Br)cc3)C(c3ccc(N(C)C)cc3)C2)cc1 (stereo not drawn) [Compound 3e] | 1.25 ± 0.086 |  | 53 ± 0.9 | 80 ± 2.9 | 30 ± 0.9 | 20 |
| FC(F)(F)c1ccc(/C=C/C2=NN(c3ccc(Br)cc3)C(c3ccc(C(F)(F)F)cc3)C2)cc1 (stereo not drawn) [Compound 3f] | 1.47 ± 0.044 | 38 ± 2.6 | 14 ± 1.2 | 75 ± 2.7 | 5 ± 0.4 |  |
